Measurements published in patent US7829708B2, “Metabolically inert antifolates for treating disorders of abnormal cellular proliferation and inflammation” (Chelsea Therapeutics, Inc., priority 2004, dated 2010).

What was measured:
[1] = target: T1, human DHFR (Homo sapiens, UniProt P00374); assay: Inhibition of recombinant dihydrofolate reductase in vitro; type: biochemical; conditions: read-out: I50 (human DHFR)
T1 sequence (P00374 1-187): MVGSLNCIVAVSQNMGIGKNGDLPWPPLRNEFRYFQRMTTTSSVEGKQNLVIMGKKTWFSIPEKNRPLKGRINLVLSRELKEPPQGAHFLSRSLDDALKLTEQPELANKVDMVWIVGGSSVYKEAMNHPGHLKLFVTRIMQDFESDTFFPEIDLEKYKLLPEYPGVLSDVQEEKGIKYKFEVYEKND
Description: (§1) The ability of M-TREX to inhibit recombinant dihydrofolate reductase (DR) and thymidylate synthase (TS) in vitro studied in comparison to other antifolate drugs.

[2] = target: Human TS (Homo sapiens, UniProt P04818); assay: Inhibition of recombinant thymidylate synthase in vitro; type: biochemical; conditions: read-out: I50 (Human TS)
Sequence of Human TS (P04818 whole entry): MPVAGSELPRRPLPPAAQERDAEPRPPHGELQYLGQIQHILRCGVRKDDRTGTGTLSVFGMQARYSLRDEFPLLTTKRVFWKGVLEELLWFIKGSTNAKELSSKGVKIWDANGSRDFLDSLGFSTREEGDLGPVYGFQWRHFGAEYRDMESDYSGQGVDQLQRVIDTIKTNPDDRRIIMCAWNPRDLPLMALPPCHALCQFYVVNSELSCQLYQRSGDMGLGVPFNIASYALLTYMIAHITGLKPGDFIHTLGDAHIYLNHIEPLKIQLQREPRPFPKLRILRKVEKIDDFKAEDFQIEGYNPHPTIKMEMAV
Description: as §1

SMILES	IC50 [1] [nM]	IC50 [2] [nM]
C=C(CC(NC(=O)c1ccc(CCc2cnc3nc(N)nc(N)c3n2)cc1)C(=O)O)C(=O)O (stereo not drawn) [MDAM, methylene-1-deazaaminopterine, reference compound]	44	–
C=C(CC(NC(=O)c1ccc(CCc2ccc3nc(N)nc(N)c3c2)cc1)C(=O)O)C(=O)O (stereo not drawn) [M-TREX, 4-Amino-4-deoxy-5,8,10-trideazapteroyl-4′-methylene glutamic acid]	17	3800
